Assay results from patent publication US20130310374A1, “Substituted Imidazoquinoline Derivatives” (PIRAMAL ENTERPRISES LIMITED`, priority 2010, published 2013).

Assays:
Format in all cases: cell-based
PANC 1 = assay: Cytotoxicity propidium iodide assay, PANC 1; details: Homo sapiens; PANC 1 (pancreatic), 48 hours treatment; read-out: IC50 Values in μM, C4a
Protocol: (§1) The assay was designed as in the reference, Anticancer Drugs, 2002, 13, 1-8, the disclosure of which is incorporated herein by reference for the teaching of the assay.
(§2) Cells from cell lines (ATCC) as mentioned in the table given below were seeded at a density of 3000 cells/well in a white opaque 96-well plate. Following incubation at 37° C./5% CO2 for a period of 18-24 hours, the cells were treated with various concentrations (stock solution was prepared in DMSO and subsequent dilutions were made in media as per ATCC guidelines) of the compounds of the present invention for a period of 48 hours. At the end of treatment, the culture medium was discarded, the cells were washed with 1×PBS and 200 μL of […] propidium iodide was added to each well. The plates were frozen at […] overnight. For analysis, the plates were warmed to RT, allowed to thaw and were read in PoleStar fluorimeter with the fluorescence setting. The percentage of viable cells in the non-treated set of wells was considered to be 100 and the percentage viability following treatment was calculated accordingly. IC50 values were calculated from graphs plotted using these percentages. IC50 values for certain compounds of present invention are depicted in Table 1 and % Inhibition of certain compounds of present invention are depicted in Table 2.

BxPC3 = assay: Cytotoxicity propidium iodide assay, BxPC3; details: Homo sapiens, BXPC-3; BxPC3 (pancreatic), 48 hours treatment; read-out: IC50 Values in μM, C4c
Outline: (§3)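 Compound exposure lasted 48 h at multiple concentrations, after an 18-24 h settling period at 37° C. with 5% CO2. Washed cells received propidium iodide ([…]) and went through an overnight freeze and thaw before fluorimetric reading; IC50 values came from percentages relative to non-treated cells.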

LN229 = assay: Cytotoxicity propidium iodide assay, LN229; details: Homo sapiens, LN-229; LN229 (glioblastoma), 48 hours treatment; read-out: IC50 Values in μM, C5a
Protocol: as §1, §2

AsPC 1 = assay: Cytotoxicity propidium iodide assay, AsPC 1; details: Homo sapiens, ASPC1; AsPC 1 (pancreatic), 48 hours treatment; read-out: IC50 Values in μM, C4b
BT 549 = assay: Cytotoxicity propidium iodide assay, BT 549; details: Homo sapiens; BT 549 (breast), 48 hours treatment; read-out: IC50 Values in μM, C3c
Outline: as §3

IFN-γ = assay: Con-A-induced IFN-γ production from hPBMC; details: Homo sapiens, concanavalin A 1 μg/mL, 18 hours
Protocol: Con-A-Induced IFN-γ Production from hPBMC
Peripheral blood was collected from normal healthy volunteers after informed consent. Peripheral blood mononuclear cells (hPBMC) were harvested using Ficoll-Hypaque density gradient centrifugation (1.077 g/mL; Sigma Aldrich). hPBMCs were resuspended in RPMI 1640 culture medium (Gibco BRL, Pasley, UK) containing 10% FCS, 100 U/mL penicillin (Sigma Chemical Co. St Louis, Mo.) and […] streptomycin (Sigma Chemical Co. St Louis, Mo.) at 1×10^6 cells/mL. 1×10^5 hPBMCs/well were pre-treated with 0.025 μM of compounds of present invention or 0.5% DMSO (vehicle control) for 30 minutes at 37° C. Subsequently, these cells were stimulated with 1 μg/mL concanavalin A (Sigma Chemical Co., St. Louis, Mo.). Following 18 hours of incubation at 37° C., supernatants were collected and stored at −70° C. until assayed for human IFN-γ by ELISA as described by the manufacturer (OptiEIA ELISA sets, BD BioSciences). In every experiment, cyclosporin (1 μM) was used as a positive control for inhibiting induced IFN-γ production. In all experiments, the toxicity of test compounds was ascertained, in parallel, using the MTS (3-(4,5-dimethylthiazol-2-yl)-5-(3-carboxymethoxyphenyl)-2-(4-sulfonyl)-2H-tetrazolium) assay as described in Am. J. Physiol. Cell Physiol., 2003, 285, C813-C822.

MDA MB 231 = assay: Cytotoxicity propidium iodide assay, MDA MB 231; details: Homo sapiens; MDA MB 231 (breast), 48 hours treatment; read-out: IC50 Values in μM, C3a
PI3K/mTOR pathway = assay: Western blot analysis in A2780 ovarian cancer cell line; details: A2780 cells treated for 1 hour; FIG. 1A-1E
Protocol: Protocol for Western Blot Analysis
A2780 ovarian cancer cell line (ATCC) were grown to approximately 70% confluence in 100-mm tissue culture dishes and then treated for 1 hour with […] compounds of Example 2, 3, 5, 16, 19, 55 and 59. Total protein was extracted using cell lysis buffer (NaCl […], NP40 0.67%, Tris-Cl, pH 7.5, 67 mM) containing protease inhibitors and phosphatase inhibitors (Beta-glycerol phosphate 40 mM, DTT 1 mM, NaF 0.4 mM, Sodium-Orthovanadate 0.4 mM) at 4° C. for 1 hour. Cell lysates were then centrifuged at 2×10^4 g for 10 minutes at 4° C., and the protein concentration of the supernatant was quantified using the Bradford's method (BioRad, USA). For SDS-PAGE, 50 μg protein was loaded in SDS-PAGE, transferred to a polyvinylidene difluoride membrane (Bio-Rad, USA) and blocked with 5 mL buffer [5% skim milk and 0.1% Tween] for 1 hour 30 minutes. Membrane were probed with primary antibody (all primary antibodies were from cell signaling with 1:1000 in TBST solution) of respective protein at 4° C. overnight. Peroxidase-labeled anti-rabbit or anti-mouse antibodies (Santacruze, USA) were used as the secondary antibody. Actin and respective whole protein levels were used as the control for protein loading. Protein antigens were detected using Chemiluminescent Substrate (Thermo scientific, USA) and exposed on Kodak station.

KCL22/SR = assay: Cytotoxicity propidium iodide assay, KCL22/SR; details: Homo sapiens, KCL-22; KCL22/SR (CML), 48 hours treatment; read-out: IC50 Values in μM, C6e
Outline: as §3

KU812/SR = assay: Cytotoxicity propidium iodide assay, KU812/SR; details: Homo sapiens; KU812/SR (CML), 48 hours treatment; read-out: IC50 Values in μM, C6c
Outline: as §3

Compound | IC50 (PANC 1) [µM] | IC50 (BxPC3) [µM] | IC50 (LN229) [µM] | IC50 (AsPC 1) [µM] | IC50 (BT 549) [µM] | inhibition at 0.025 µM (IFN-γ) [%] | IC50 (MDA MB 231) [µM] | Akt, S6 and 4EBP1 phosphorylation (Western blot) (PI3K/mTOR pathway) | IC50 (KCL22/SR) [µM] | IC50 (KU812/SR) [µM]
Cn1c(=O)n(-c2ccc(C(C)(C)C#N)nc2)c2c3cc(-c4cnc5ccccc5c4)ccc3ncc21 [Example 2, 2-Methyl-2-(5-(3-methyl-2-oxo-8-(quinolin-3-yl)-2,3-dihydro-1H-imidazo[4,5-c]quinolin-1-yl)pyridin-2-yl)propanenitrile] | 0.1 | 0.04 | 0.55 | 0.09 | 0.9 | 58 | 0.07 | inhibit Akt, S6 and 4EBP1 phosphorylation | – | –
Cn1c(=O)n(-c2ccc(C(C)(C)C#N)nc2)c2c3cc(-c4cnc(N)c(C(F)(F)F)c4)ccc3ncc21 [Example 3, 2-(5-(8-(6-Amino-5-(trifluoromethyl)pyridin-3-yl)-3-methyl-2-oxo-2,3-dihydro-1H-imidazo[4,5-c]quinolin-1-yl)pyridin-2-yl)-2-methylpropanenitrile] | 0.01 | 0.01 | 0.056 | 0.019 | 0.03 | 98 | 0.014 | inhibit Akt, S6 and 4EBP1 phosphorylation | 0.06 | 0.19
CS(=O)(=O)O.Cn1c(=O)n(-c2ccc(C(C)(C)C#N)nc2)c2c3cc(-c4cnc(N)c(C(F)(F)F)c4)ccc3ncc21 [Example 3a, 8-(6-Amino-5-(trifluoromethyl)pyridin-3-yl)-1-(6-(2-cyanopropan-2-yl)pyridin-3-yl)-3-methyl-2-oxo-2,3-dihydro-1H-imidazo[4,5-c]quinolin-5-ium methanesulfonate] | – | – | – | – | – | – | – | inhibit Akt, S6 and 4EBP1 phosphorylation | – | –
CC(C)(C#N)c1ccc(-n2c(=O)n(CC#N)c3cnc4ccc(-c5cnc(N)c(C(F)(F)F)c5)cc4c32)cn1 [Example 16, 2-(5-(8-(6-Amino-5-(trifluoromethyl)pyridin-3-yl)-3-(cyanomethyl)-2-oxo-2,3-dihydro-1H-imidazo[4,5-c]quinolin-1-yl)pyridin-2-yl)-2-methylpropanenitrile] | 0.017 | 0.008 | 0.65 | 0.038 | 0.015 | 31 | 0.07 | inhibit Akt, S6 and 4EBP1 phosphorylation | 0.23 | 0.19
COc1ccc(-n2c(=O)n(C)c3cnc4ccc(-c5cnc(N)c(C(F)(F)F)c5)cc4c32)cn1 [Example 19, 8-(6-Amino-5-(trifluoromethyl)pyridin-3-yl)-1-(6-methoxypyridin-3-yl)-3-methyl-1H-imidazo[4,5-c]quinolin-2(3H)-one] | 0.026 | 0.016 | 0.096 | 0.1 | 0.23 | 93 | 0.17 | inhibit Akt, S6 and 4EBP1 phosphorylation | 0.06 | 0.06
